Values quoted from earlier work in US8202840B2, “Enhanced ocular neuroprotection and neurostimulation” (Minu L.L.C., priority 2005, dated 2012).

Tests used:
[1] = administered systemically
[2] = test system: Ganglion cells in the retina (RGC); settings: systemically administered
[3] = molecular target: immunophilin FK 506-binding protein (FKBP) (Homo sapiens, UniProt P62942); settings: in vitro
Sequence of immunophilin FK 506-binding protein (FKBP) (P62942 whole entry): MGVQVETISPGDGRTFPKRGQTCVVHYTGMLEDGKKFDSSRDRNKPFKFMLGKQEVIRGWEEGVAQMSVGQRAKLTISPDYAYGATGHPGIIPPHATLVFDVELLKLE

solubility in chloroform (chloroform): very soluble
solubility in ethanol (ethanol): freely soluble
solubility in methanol (methanol): very soluble
solubility in water (water): practically insoluble
binding to and inhibition of FKBP activity [3]: binds to and inhibits the activity
Compound: C=CC[C@@H]1/C=C(\C)C[C@H](C)C[C@H](OC)[C@H]2O[C@@](O)(C(=O)C(=O)N3CCCC[C@H]3C(=O)O[C@H](/C(C)=C/[C@@H]3CC[C@@H](O)[C@H](OC)C3)[C@H](C)[C@@H](O)CC1=O)[C@H](C)C[C@@H]2OC [tacrolimus, Tacrolimus]
renal and hepatic toxicity [1]: significant renal and hepatic toxicity
neuroprotection on RGC [2]: conferred neuroprotection on RGC
